From the supplement of paper PMC10307832

What was measured:
Experiment in all cases: relative viability (nuclei count vs DMSO), 5 days (fraction); higher = more cells survive
Doxorubicin + Olaparib = compound: COc1cccc2c1C(=O)c1c(O)c3c(c(O)c1C2=O)C[C@@](O)(C(=O)CO)C[C@@H]3O[C@H]1C[C@H](N)[C@H](O)[C@H](C)O1 [Doxorubicin] + O=C(c1cc(Cc2n[nH]c(=O)c3ccccc23)ccc1F)N1CCN(C(=O)C2CC2)CC1 [Olaparib] (partner 8 µM)
How it was run: (§1)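 After 5 days of treatment, lung cancer cells in 1536-well plates were fixed and stained in a single step (final 0.05% Triton X-100, 1% formaldehyde, 1 ug/ml Hoechst) and their nuclei counted on 4× images. Treatment had been applied by pin tool the day after seeding as one drug alone or as a fixed anchor-drug dose with five library-drug doses (not always all listed) in √10 steps. Relative viability is the nuclei count of treated wells divided by that of vehicle wells, and values are medians of duplicate plates.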

BAY61-3606 + Decitabine = compound: COC1=C(C=C(C=C1)C2=CC3=NC=CN3C(=N2)NC4=C(C=CC=N4)C(=O)N)OC [BAY61-3606] + Nc1ncn([C@H]2C[C@H](O)[C@@H](CO)O2)c(=O)n1 [Decitabine] (partner 2 µM)
How it was run: as §1

Doxorubicin + Linsitinib = compound: COc1cccc2c1C(=O)c1c(O)c3c(c(O)c1C2=O)C[C@@](O)(C(=O)CO)C[C@@H]3O[C@H]1C[C@H](N)[C@H](O)[C@H](C)O1 [Doxorubicin] + C[C@]1(O)C[C@@H](c2nc(-c3ccc4ccc(-c5ccccc5)nc4c3)c3c(N)nccn32)C1 [Linsitinib] (partner 1 µM)
How it was run: as §1

Doxorubicin + Vorinostat = compound: COc1cccc2c1C(=O)c1c(O)c3c(c(O)c1C2=O)C[C@@](O)(C(=O)CO)C[C@@H]3O[C@H]1C[C@H](N)[C@H](O)[C@H](C)O1 [Doxorubicin] + O=C(CCCCCCC(=O)Nc1ccccc1)NO [Vorinostat] (partner 1 µM)
How it was run: as §1

With UMC-11 as the cell line, how does the relative viability (Doxorubicin + Olaparib; first compound 0.001 µM) read?
The relative viability was 0.38.

And the relative viability (Doxorubicin + Olaparib; first compound 0.003162 µM)?
Its relative viability is 0.401.

What about the relative viability (Doxorubicin + Olaparib; first compound 0.01 µM) of the same cell line?
Its relative viability is 0.322.

And the relative viability (Doxorubicin + Olaparib; first compound 0.03162 µM)?
The relative viability was 0.302.

What about the relative viability (Doxorubicin + Olaparib; first compound 0.1 µM) of the same cell line?
The relative viability was 0.275.

What about the relative viability (BAY61-3606 + Decitabine; first compound 0.02 µM) of the same cell line?
The relative viability was 0.65.

And the relative viability (BAY61-3606 + Decitabine; first compound 0.06325 µM)?
The relative viability was 0.476.

What about the relative viability (BAY61-3606 + Decitabine; first compound 0.2 µM) of the same cell line?
The relative viability was 0.601.

And the relative viability (BAY61-3606 + Decitabine; first compound 0.6325 µM)?
Its relative viability is 0.597.

What about the relative viability (BAY61-3606 + Decitabine; first compound 2 µM) of the same cell line?
The relative viability was 0.548.

And the relative viability (Doxorubicin + Linsitinib; first compound 0.001 µM)?
Its relative viability is 1.1.

What about the relative viability (Doxorubicin + Linsitinib; first compound 0.003162 µM) of the same cell line?
Its relative viability is 1.13.

What about the relative viability (Doxorubicin + Linsitinib; first compound 0.01 µM) of the same cell line?
Its relative viability is 1.09.

And the relative viability (Doxorubicin + Linsitinib; first compound 0.03162 µM)?
Its relative viability is 0.803.

What about the relative viability (Doxorubicin + Linsitinib; first compound 0.1 µM) of the same cell line?
The relative viability was 0.875.

What about the relative viability (Doxorubicin + Vorinostat; first compound 0.001 µM) of the same cell line?
Its relative viability is 0.52.

What about the relative viability (Doxorubicin + Vorinostat; first compound 0.003162 µM) of the same cell line?
The relative viability was 0.354.

And the relative viability (Doxorubicin + Vorinostat; first compound 0.01 µM)?
The relative viability was 0.432.

And the relative viability (Doxorubicin + Vorinostat; first compound 0.03162 µM)?
Its relative viability is 0.329.

What about the relative viability (Doxorubicin + Vorinostat; first compound 0.1 µM) of the same cell line?
Its relative viability is 0.37.
